According to ChEMBL document CHEMBL1157685, “Biotransformation of isoimperatorin and imperatorin by Glomerella cingulata and beta-secretase inhibitory activity” (Bioorg Med Chem, 2010):
Calls of active or inactive are those of the source. The rule behind the calls is not given here.

What was measured:
Beta-secretase 1 [1] = biological target: T1, Beta-secretase 1 (Homo sapiens, UniProt P56817); test: Inhibition of human recombinant BACE1 after 60 mins by fluorescence assay
Beta-secretase 1 [2] = biological target: T1, Beta-secretase 1; test: Inhibition of human recombinant BACE1 at 100 to 500 uM after 60 mins by fluorescence assay
Beta-secretase 1 [3] = biological target: T1, Beta-secretase 1
Description: Competitive inhibition of human recombinant BACE1 by Lineweaver-Burke plot analysis

T1 sequence (P56817 whole entry): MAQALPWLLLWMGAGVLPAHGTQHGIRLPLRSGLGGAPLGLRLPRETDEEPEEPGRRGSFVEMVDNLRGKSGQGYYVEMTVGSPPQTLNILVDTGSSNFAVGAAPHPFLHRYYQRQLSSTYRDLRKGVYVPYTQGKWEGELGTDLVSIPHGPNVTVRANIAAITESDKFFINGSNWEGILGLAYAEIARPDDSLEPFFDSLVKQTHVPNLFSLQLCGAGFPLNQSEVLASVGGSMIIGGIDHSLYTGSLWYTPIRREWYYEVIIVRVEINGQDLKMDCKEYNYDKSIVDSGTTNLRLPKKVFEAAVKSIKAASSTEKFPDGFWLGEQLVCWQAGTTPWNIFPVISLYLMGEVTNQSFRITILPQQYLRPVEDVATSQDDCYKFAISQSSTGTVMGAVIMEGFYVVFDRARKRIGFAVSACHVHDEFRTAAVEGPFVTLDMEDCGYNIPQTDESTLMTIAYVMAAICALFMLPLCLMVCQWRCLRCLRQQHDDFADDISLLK

Row | Structure (SMILES) | IC50 (Beta-secretase 1 [1]) [µM] | inhibition (Beta-secretase 1 [1]) | inhibition (Beta-secretase 1 [2]) | Kic (Beta-secretase 1 [3]) [µM]
1 | CC(C)=CCOc1c(CCC(=O)O)c(O)cc2occc12 | 186 | Dose-dependent effect |  | 
2 | COC(=O)CCc1c(OC)cc2occc2c1OCC=C(C)C | 16.2 | Dose-dependent effect |  | 
3 | O=c1ccc2cc3ccoc3c(O)c2o1 |  | Dose-dependent effect | inactive | 
4 | COc1cc2occc2c(OCC=C(C)C)c1CCC(=O)O | 203 | Dose-dependent effect |  | 
5 | COC(=O)CCc1c(O)cc2occc2c1OCC=C(C)C | 30.5 | Dose-dependent effect |  | 11.3
6 | CC(C)=CCOc1c2ccoc2cc2oc(=O)ccc12 [ISOIMPERATORIN] | 244 | Dose-dependent effect |  | 
7 | CC(C)=CCOc1c2occc2cc2ccc(=O)oc12 [PENTOSALEN] | 91.8 | Dose-dependent effect |  | 
